SMILES strings stand for the structures.

Results on 56 molecules are retold here after ChEMBL document CHEMBL1135413, “Arylamidrazones as novel corticotropin releasing factor receptor antagonists” (J Med Chem, 2002).

This assay has as its target T1, Corticotropin-releasing factor receptor 1 (Homo sapiens, UniProt P34998).
T1 sequence (P34998 whole entry): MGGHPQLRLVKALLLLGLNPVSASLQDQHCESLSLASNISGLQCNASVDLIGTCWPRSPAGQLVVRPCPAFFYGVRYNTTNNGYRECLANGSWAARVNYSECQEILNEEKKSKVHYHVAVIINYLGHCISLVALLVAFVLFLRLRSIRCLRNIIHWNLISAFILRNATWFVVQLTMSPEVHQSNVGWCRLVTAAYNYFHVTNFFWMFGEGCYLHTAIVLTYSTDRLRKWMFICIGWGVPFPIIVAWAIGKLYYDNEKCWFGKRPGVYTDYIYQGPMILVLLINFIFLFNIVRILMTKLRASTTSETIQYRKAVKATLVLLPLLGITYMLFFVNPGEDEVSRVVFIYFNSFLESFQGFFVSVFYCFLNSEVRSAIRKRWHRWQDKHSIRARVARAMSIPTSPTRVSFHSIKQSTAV
Briefly: Binding affinity against human Corticotropin releasing factor receptor 1.

For orientation: Ki means a measure of affinity in units of concentration, obtained from inhibition or displacement. In turn, `CCOc1cccc(N/C(=N/Nc2ccccc2C)C(C)=O)c1` displayed an inhibition constant Ki greater than 10 µM. The same measure for `CC(=O)/C(=N\c1cccc(F)c1)NNc1ccccc1C`: 0.043 µM; for `CC(=O)/C(=N\c1ccccc1Cl)NNc1ccccc1Cl`: greater than 10 µM. The same measure for `CC(=O)/C(=N\c1cccc(F)c1)NNc1ccccc1Cl`: 0.043 µM; for `CC(=O)/C(=N\c1cccc(C)c1)NNc1ccccc1C`: 0.526 µM. `CC(=O)/C(=N\c1cccc(Cl)c1)NNc1ccc(Br)cc1` yielded a Ki of 1.46 µM.

In turn, `CC(=O)C(=NNc1ccccc1)Nc1ccccc1` registered an inhibition constant Ki of 6.23 µM.

With `CC(=O)C(=NNc1ccccc1C(F)(F)F)Nc1cccc(C#N)c1`, the Ki is greater than 10 µM. `CC(=O)/C(=N\Nc1ccccc1C(F)(F)F)N(C)c1cccc(Cl)c1` returned a Ki greater than 10 µM. The molecule `CC(=O)/C(=N\c1ccc(Cl)cc1)NNc1ccccc1C(F)(F)F` displayed a Ki greater than 10 µM.

As to `C#Cc1cccc(NC(=NNc2ccccc2C(F)(F)F)C(C)=O)c1`, the inhibition constant (Ki) is 0.066 µM.

As to `CC(=O)/C(=N\c1cccc(C)c1)NNc1ccccc1Cl`, the inhibition constant (Ki) was determined as 0.115 µM. As for `CC(=O)C(=NNc1ccccc1Cl)Nc1cccc(Cl)c1`, the Ki came to 0.417 µM.

`CC(=O)C(=NNc1ccccc1S(N)(=O)=O)Nc1cccc(Cl)c1` had a Ki greater than 10 µM.

The molecule `CC(=O)C(=NNc1ccccc1C#N)Nc1ccccc1` had an inhibition constant Ki of 1.08 µM.

With `CC(=O)/C(=N\c1cccc(C(F)(F)F)c1)NNc1ccccc1C`, the Ki is 0.291 µM. The same measure for `COc1cccc(N/C(=N/Nc2ccccc2C(F)(F)F)C(C)=O)c1`: 6.95 µM; for `CSc1cccc(N/C(=N/Nc2ccccc2Cl)C(C)=O)c1`: greater than 10 µM; for `COc1cccc(N/C(=N/Nc2ccccc2Cl)C(C)=O)c1`: 0.652 µM. The molecule `CSc1cccc(N/C(=N/Nc2ccccc2C)C(C)=O)c1` came in with an inhibitory constant (Ki) greater than 10 µM. In turn, `CC(=O)/C(=N\Nc1ccccc1C#N)Nc1cccc(Cl)c1` came in with an inhibitory constant (Ki) of 0.415 µM. In turn, `CC(=O)/C(=N\c1ccccc1Cl)NNc1ccccc1C` gave a Ki greater than 10 µM.

As for `CC(=O)/C(=N\Nc1ccccc1Cl)N(C)c1cccc(Cl)c1`, the Ki was greater than 10 µM. `CC(=O)/C(=N\Nc1ccccc1)Oc1cccc(Cl)c1` had an inhibition constant (Ki) greater than 10 µM.

With `CC(=O)C(=NNc1ccccc1[N+](=O)[O-])Nc1cccc(Cl)c1`, affinity was put at a Ki of 0.051 µM. In the case of `CC(=O)/C(=N\Nc1ccccc1)N(C)c1cccc(Cl)c1`, the Ki was greater than 10 µM. For `CCOc1cccc(NC(=NNc2ccccc2Cl)C(C)=O)c1`, the inhibition constant (Ki) was greater than 10 µM. For `CC(=O)/C(=N\c1ccccc1Cl)NNc1ccccc1` the value was greater than 10 µM; for `CC(=O)/C(=N\c1ccc(Cl)cc1)NNc1ccccc1C`, 1.83 µM.

In turn, `CC(=O)/C(=N\Nc1ccccc1[N+](=O)[O-])Oc1cccc(Cl)c1` gave a Ki greater than 10 µM. In turn, `CSc1cccc(N/C(=N/Nc2ccccc2C(F)(F)F)C(C)=O)c1` gave a Ki greater than 10 µM. As to `CC(=O)/C(=N\Nc1ccccc1C)Oc1cccc(Cl)c1`, the Ki was greater than 10 µM. `CCOc1cccc(NC(=NNc2ccccc2C(F)(F)F)C(C)=O)c1` gave an inhibition constant (Ki) greater than 10 µM. The same measure for `CC(=O)/C(=N\Nc1ccccc1)Nc1cccc(Cl)c1`: 2.72 µM; for `CC(=O)/C(=N\Nc1ccccc1C#N)Nc1ccc(Cl)cc1`: 2.21 µM; for `CC(=O)/C(=N\Nc1ccccc1C)Sc1cccc(Cl)c1`: greater than 10 µM. Consider `C#Cc1cccc(/N=C(/NNc2ccccc2Cl)C(C)=O)c1`, for which the affinity corresponds to a Ki of 0.035 µM. `CC(=O)/C(=N\c1ccccc1)NNc1ccccc1C`: the inhibition constant Ki was 0.526 µM.

With `CC(=O)C(=NNc1ccccc1C(F)(F)F)Nc1cccc(C(F)(F)F)c1`, the Ki is greater than 10 µM. With `CC(=O)/C(=N\c1ccccc1)NNc1ccccc1Cl`, the inhibitory constant (Ki) came to 0.299 µM. In turn, `CC(=O)/C(=N\c1ccccc1Cl)NNc1ccccc1C#N` displayed a Ki greater than 10 µM. In turn, `CC(=O)/C(=N\Nc1ccccc1C#N)Oc1cccc(C)c1` had a Ki of 0.65 µM. The molecule `C#Cc1cccc(/N=C(/NNc2ccccc2C)C(C)=O)c1` came in with a Ki of 0.062 µM. `CC(=O)/C(=N\Nc1ccccc1C)N(C)c1cccc(Cl)c1` came in with a Ki greater than 10 µM.

In turn, `COc1cccc(NC(=NNc2ccccc2C)C(C)=O)c1` had a Ki of 1.4 µM. As for `CC(=O)C(=NNc1ccccc1S(C)(=O)=O)Nc1cccc(Cl)c1`, the Ki was greater than 10 µM. As for `CC(=O)/C(=N\Nc1ccccc1C#N)N(C)c1cccc(Cl)c1`, the inhibition constant (Ki) was greater than 10 µM. For `CC(=O)/C(=N\c1cccc(C#N)c1)NNc1ccccc1C`, the inhibition constant Ki is greater than 10 µM. As for `CC(=O)C(=NNc1ccccc1C(F)(F)F)Nc1ccccc1Cl`, the Ki is greater than 10 µM. Take `CC(=O)C(=NNc1ccccc1C(F)(F)F)Nc1cccc(Cl)c1`: the inhibitory constant (Ki) worked out at 0.538 µM. The same measure for `CC(=O)/C(=N\c1ccccc1)NNc1ccccc1C(F)(F)F`: 2.26 µM; for `CC(=O)/C(=N\c1cccc(F)c1)NNc1ccccc1C(F)(F)F`: 0.197 µM; for `COc1cccc(NC(=NNc2ccccc2)C(C)=O)c1`: greater than 10 µM. For the molecule `CC(=O)/C(=N\Nc1ccccc1C(F)(F)F)Oc1cccc(Cl)c1`, the inhibitory constant (Ki) is greater than 10 µM. For `CC(=O)/C(=N\Nc1ccccc1Cl)Sc1cccc(Cl)c1`, the Ki is greater than 10 µM. Molecule `CC(=O)/C(=N\c1ccc(Cl)cc1)NNc1ccccc1` returned an inhibition constant Ki greater than 10 µM.
